Source: the supplement of paper PMC10307832

Legend:
Assay in all cases: relative viability (nuclei count vs DMSO), 5 days (fraction); higher = more cells survive
[1] = compound: C/C(=N\NC(=S)N1CCC1)/C2=CC=CC=N2 + CS(=O)(=O)CCNCc1ccc(-c2ccc3ncnc(Nc4ccc(OCc5cccc(F)c5)c(Cl)c4)c3c2)o1 [Lapatinib] (partner 2 µM)
Procedure, shortened: (§1)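 One day after seeding in 1536-well plates, lung cancer cell lines were dosed by pin tool. Dosing was either single-drug or a fixed anchor-drug dose plus five library-drug doses (not always all listed) in √10 steps. After 5 days, nuclei were stained in one fix-and-stain step and counted on 4× images, and relative viability is the nuclei count of treated wells over that of vehicle wells, given as the median of duplicate plates.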

[2] = compound: C/C(=N\NC(=S)N1CCC1)/C2=CC=CC=N2 + C[C@@H](Oc1cc(-c2cnn(C3CCNCC3)c2)cnc1N)c1c(Cl)ccc(F)c1Cl [Crizotinib] (partner 1 µM)
Procedure, shortened: as §1

[3] = compound: C/C(=N\NC(=S)N1CCC1)/C2=CC=CC=N2 + Cc1nc(Nc2ncc(C(=O)Nc3c(C)cccc3Cl)s2)cc(N2CCN(CCO)CC2)n1 [Dasatinib] (partner 0.075 µM)
Procedure, shortened: as §1

[4] = compound: C/C(=N\NC(=S)N1CCC1)/C2=CC=CC=N2 + Nc1nc2[nH]cc(CCc3ccc(C(=O)N[C@@H](CCC(=O)O)C(=O)O)cc3)c2c(=O)[nH]1 [Pemetrexed] (partner 0.2 µM)
Procedure, shortened: as §1

| Cell Line | relative viability ([1]; first compound 0.05 µM) | relative viability ([1]; first compound 0.1581 µM) | relative viability ([1]; first compound 0.5 µM) | relative viability ([1]; first compound 1.581 µM) | relative viability ([1]; first compound 5 µM) | relative viability ([2]; first compound 0.05 µM) | relative viability ([2]; first compound 0.1581 µM) | relative viability ([2]; first compound 0.5 µM) | relative viability ([2]; first compound 1.581 µM) | relative viability ([2]; first compound 5 µM) | relative viability ([3]; first compound 0.05 µM) | relative viability ([3]; first compound 0.1581 µM) | relative viability ([3]; first compound 0.5 µM) | relative viability ([3]; first compound 1.581 µM) | relative viability ([3]; first compound 5 µM) | relative viability ([4]; first compound 0.05 µM) | relative viability ([4]; first compound 0.1581 µM) | relative viability ([4]; first compound 0.5 µM) | relative viability ([4]; first compound 1.581 µM) | relative viability ([4]; first compound 5 µM) |
| --- | --- | --- | --- | --- | --- | --- | --- | --- | --- | --- | --- | --- | --- | --- | --- | --- | --- | --- | --- | --- |
| COR-L23 | 0.144 | 0.156 | 0.119 | 0.0787 | 0.101 | 0.11 | 0.119 | 0.12 | 0.0692 | 0.0727 | 0.102 | 0.095 | 0.0719 | 0.0707 | 0.0937 | 0.149 | 0.169 | 0.163 | 0.105 | 0.123 |
| NCI-H1755 | 0.249 | 0.173 | 0.195 | 0.205 | 0.191 | 0.753 | 0.664 | 0.16 | 0.174 | 0.176 | 0.16 | 0.202 | 0.157 | 0.198 | 0.247 | 0.394 | 0.302 | 0.273 | 0.31 | 0.292 |
| NCI-H1437 | 0.127 | 0.128 | 0.109 | 0.0868 | 0.0855 | 0.138 | 0.133 | 0.128 | 0.129 | 0.0811 | 0.0967 | 0.128 | 0.0689 | 0.0833 | 0.122 | 0.174 | 0.169 | 0.193 | 0.171 | 0.126 |
| NCI-H2085 | 0.341 | 0.365 | 0.335 | 0.271 | 0.325 | 0.269 | 0.236 | 0.25 | 0.219 | 0.225 | 0.209 | 0.219 | 0.27 | 0.259 | 0.229 | 0.248 | 0.264 | 0.237 | 0.178 | 0.244 |
| H3255 | 0.255 | 0.218 | 0.14 | 0.157 | 0.184 | 0.289 | 0.309 | 0.288 | 0.222 | 0.189 | 0.355 | 0.347 | 0.258 | 0.225 | 0.392 | 0.359 | 0.349 | 0.355 | 0.268 | 0.255 |
| NCI-H650 | 0.174 | 0.294 | 0.23 | 0.168 | 0.203 | 0.187 | 0.195 | 0.221 | 0.146 | 0.171 | 0.19 | 0.212 | 0.191 | 0.216 | 0.177 | 0.179 | 0.245 | 0.201 | 0.166 | 0.131 |
| LOU-NH91 | 0.399 | 0.434 | 0.487 | 0.383 | 0.357 | 0.515 | 0.471 | 0.476 | 0.45 | 0.472 | 0.35 | 0.37 | 0.27 | 0.367 | 0.382 | 0.392 | 0.439 | 0.421 | 0.403 | 0.366 |
| NCI-H1650 | 0.257 | 0.204 | 0.192 | 0.267 | 0.199 | 0.18 | 0.199 | 0.19 | 0.153 | 0.175 | 0.154 | 0.172 | 0.167 | 0.157 | 0.183 | 0.308 | 0.186 | 0.202 | 0.221 | 0.203 |
| NCI-H3122 | 0.304 | 0.284 | 0.268 | 0.291 | 0.243 | 0.151 | 0.171 | 0.185 | 0.171 | 0.176 | 0.0675 | 0.0912 | 0.0839 | 0.11 | 0.11 | 0.0953 | 0.11 | 0.11 | 0.149 | 0.15 |
| PC-3 [JPC-3] | 0.267 | 0.27 | 0.259 | 0.228 | 0.229 | 0.594 | 0.984 | 0.361 | 0.301 | 0.252 | 0.252 | 0.281 | 0.238 | 0.235 | 0.188 | 0.394 | 0.464 | 0.308 | 0.265 | 0.237 |
| NCI-H1651 | 0.117 | 0.119 | 0.131 | 0.0681 | 0.0861 | 0.148 | 0.132 | 0.129 | 0.112 | 0.126 | 0.195 | 0.174 | 0.126 | 0.0657 | 0.0655 | 0.137 | 0.111 | 0.0991 | 0.0716 | 0.0806 |
| NCI-H2087 | 0.196 | 0.268 | 0.224 | 0.195 | 0.143 | 0.323 | 0.274 | 0.284 | 0.187 | 0.171 | 0.129 | 0.15 | 0.15 | 0.107 | 0.0833 | 0.16 | 0.181 | 0.214 | 0.163 | 0.119 |
